Several values for one entry are separate records, joined by “and”; a condition that tells them apart may be missing. Equal entries are not always repeated.
Columns and labels:
MV-4-11 cells = assay: Cell viability / growth inhibition (EZ-Cytox), MV-4-11; assay type: cell-based, human; conditions: 72 h; called IC50 in supplementary text
Description: The cultured cells were incubated at 37°C with 5% CO2. Cell viability was assessed with a tetrazolium-based assay using the EZ-Cytox Cell Viability Assay kit (DaeilLab, Korea). Briefly, 2,000 ∼ 15,000 cells were plated in 96-well flat bottom plates in 100 µl of medium. The next day, the cells were treated with compounds along with dimethyl sulfoxide (DMSO, Fisher, Waltham, MA, USA) as a negative control. […] After incubation, the optical density (OD) was measured at a wavelength of 450 nm with a Victor multilabel reader (Perkin Elmer, Waltham, MA, USA).

FLT3 = molecular target: T1, FLT3 (Homo sapiens, UniProt P36888); assay: In vitro FLT3 kinase assay (HTRF); assay type: biochemical; conditions: recombinant FLT3, HTRF; read-out: IC50 FLT3 kinase activity
T1 construct: Recombinant proteins containing the FLT3 kinase domain were purchased from Carna biosciences (Japan); purchased Carna biosciences (Japan)
T1 sequence (P36888 610-943 limits assumed): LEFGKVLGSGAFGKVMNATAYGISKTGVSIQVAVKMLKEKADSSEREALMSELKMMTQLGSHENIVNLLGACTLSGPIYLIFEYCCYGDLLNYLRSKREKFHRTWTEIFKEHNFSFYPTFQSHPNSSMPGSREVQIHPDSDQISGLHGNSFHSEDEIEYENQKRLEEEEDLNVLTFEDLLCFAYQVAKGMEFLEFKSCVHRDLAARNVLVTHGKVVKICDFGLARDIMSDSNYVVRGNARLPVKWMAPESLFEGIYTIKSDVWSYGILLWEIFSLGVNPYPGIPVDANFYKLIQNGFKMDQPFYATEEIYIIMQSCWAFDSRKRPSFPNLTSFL
Description: The inhibition of the FLT3 kinase activity was measured with homogeneous, time-resolved fluorescence (HTRF) assays. Recombinant proteins containing the FLT3 kinase domain were purchased from Carna biosciences (Japan). Optimal enzyme, ATP, and substrate concentrations were established with the HTRF KinEASE kit (Cisbio, France) according to the manufacturer’s instructions. The FLT3 enzymes were mixed with serially diluted compounds and peptide substrates in a kinase reaction buffer (50 mM HEPES (pH 7.0), 500 μM ATP, 0.1 mM sodium orthovanadate, 5 mM MgCl2, 1 mM DTT, 0.01% bovine serum albumin (BSA), and 0.02% NaN3). After the addition of the reagents for detection, the TR-FRET signal was measured with a Victor multilabel reader (Perkin Elmer, Waltham, MA, USA). […] JAK2, JAK3, cMET, and RET in vitro kinase assays were also carried out using the HTRF assay kit.

[1] = Pharmacokinetics in mice (intravenous and oral); assay type: in vivo, ICR mice; conditions: for AUC1940/AUC1937 / AUC / Ae0–24 h / Cmax / GI24 h / Terminal half-life / Tmax: mice
Description: The protocols for the animal studies were approved by the Institute of Laboratory Animal Resources of Dongguk University, Seoul, South Korea (IACUC-2015-055-1). Five-week-old male Imprinting Control Region (ICR) mice were purchased from the Charles River Company Korea (Orient, Seoul, South Korea). Upon arrival, the animals were randomized and housed four per cage under strictly controlled environmental conditions (22-25°C and 48-52% relative humidity) with a 12 h light/dark cycle at an intensity of 150 to 300 Lux. All mice were provided food and water ad libitum and were then maintained during this study. In the intravenous study of LDD1937, 10 mg/kg of LDD1937 (dissolved in distilled water at a concentration of 2 mg/ml) were intravenously injected into the mice through the tail vein. A blood sample of approximately 0.12 ml was collected by cardiac puncture. Additionally, in the oral study of LDD1937, 10 mg/kg of LDD1937 (dissolved in the same solution used in the intravenous study) were orally administered to the mice. The analysis of LDD1937 and LDD1940, a metabolite of LDD1937, in biological samples was done with LC-MS/MS using the Waters UPLC-XEVO TQ system (Waters Corporation, Milford, CT, USA). […]1940, and carbamazepine (an internal standard, IS) were ionized in the multiple reaction monitoring mode with an ESI interface for positive ions ([M+H]^+). The turbo ion-spray interface was operated at an ion capillary voltage of 3.0 kV with a desolvation gas flow of 650 l/h and a cone gas flow of 10 l/h at 350°C. […] Separation was done on a reverse-phase C18 column (BEH, […]; Waters, Ireland) with a mobile phase, distilled water containing 0.1% formic acid and acetonitrile, at 30°C. After measuring the concentrations of the LDD1937 and LDD1940, standard methods were used to calculate the pharmacokinetic parameters using a non-compartmental analysis (WinNonlin 2.1; […] Corp., Mountain View, CA, USA).

[2] = tested on: FLT3, VEGFR1/2, PDGFRβ, and PKCα/β/γ; parameters: method as in PMID 10888033; conditions: read-out: IC50s against kinases including FLT3, VEGFR1/2, PDGFRβ, and PKCα/β/γ; cited from earlier work
[3] = metabolite LDD1940 after 10 mg/kg LDD1937 intravenous
[4] = metabolite LDD1940 after 10 mg/kg LDD1937 oral

Row | SMILES | GI50 (MV-4-11 cells) [µM] | IC50 (FLT3) | also measured
1 | O=C1Nc2ccc(C(=O)O)cc2/C1=C1/Nc2ccccc2/C1=N\OCCBr [Compound 8] | 0.34 ± 0.081 | 0.0129 ± 0.00097 µM | 
2 | O=C1Nc2ccc(C(=O)O)cc2/C1=C1/Nc2ccccc2/C1=N\OCCN1CCOCC1 [Compound 12] | > 1 | 0.00755 ± 0.00101 µM | 
3 | CN1CCN(CCO/N=C2/C(=C3/C(=O)Nc4ccc(C(=O)O)cc43)Nc3ccccc32)CC1 [Compound 11] | 0.176 ± 0.051 | 0.0033 ± 0.0006 µM | 
4 | COC(=O)c1ccc2c(c1)/C(=C1/Nc3ccccc3/C1=N\OCCBr)C(=O)N2 [Compound 2] | 0.051 ± 0.011 | 0.0192 ± 0.00188 µM | 
5 | Cl.Cl.O=C1Nc2ccc(C(=O)O)cc2/C1=C1/Nc2ccccc2/C1=N\OCCN1CCNCC1 [LDD1940] | 0.04 | 0.00245 µM and 0.0025 µM | AUC1940/AUC1937 ([1]; after 10 mg/kg LDD1937 intravenous): 42.7 ± 9.44%; AUC1940/AUC1937 ([1]; after 10 mg/kg LDD1937 oral): 65.3 ± 16.8%; Tmax of LDD1940 ([1]; after intravenous and oral administration of LDD1937, mice (span over both routes)): 1∼15 min; AUC [1, 3]: 54.6 ± 0.592 µg·min/mL; Ae0–24 h [1, 3]: 0.868 ± 0.0333 % of dose; Cmax [1, 3]: 1450 ± 694 µg/mL; GI24 h [1, 3]: 0.719 ± 0.0556 % of dose; Terminal half-life [1, 3]: 2.37 ± 2.02 h; Tmax [1, 3]: 1 (1–1) min; AUC [1, 4]: 1.84 ± 0.0741 µg·min/mL; Ae0–24 h [1, 4]: 0.0787 ± 0.0791 % of dose; Cmax [1, 4]: 8.17 ± 2.44 µg/mL; GI24 h [1, 4]: 0.792 ± 1.09 % of dose; Terminal half-life [1, 4]: 12.4 ± 2.15 h; Tmax [1, 4]: 15 (15–120) min
7 | NCCO/N=C1/C(=C2/C(=O)Nc3ccc(C(=O)O)cc32)Nc2ccccc21 [Compound 9] | 0.15 ± 0.033 | 0.0033 ± 0.00011 µM | 
8 | COC(=O)c1ccc2c(c1)/C(=C1/Nc3ccccc3/C1=N\OCCN)C(=O)N2 [Compound 3] | 0.015 ± 0.003 | 0.0045 ± 0.00075 µM | 
9 | COC(=O)c1ccc2c(c1)/C(=C1/Nc3ccccc3/C1=N\OCCN1CCN(C)CC1)C(=O)N2 [Compound 5] | 0.011 ± 0.0015 | 0.0108 ± 0.00202 µM | 
10 | O=C1Nc2ccc(C(=O)O)cc2/C1=C1/Nc2ccccc2/C1=N\O [Compound 7] | > 1 |  | GI50 MV-4-11 (MV-4-11 cells): lack of an anti-proliferative activity
11 | COC(=O)c1ccc2c(c1)/C(=C1/Nc3ccccc3/C1=N\OCCN1CCOCC1)C(=O)N2 [Compound 6] | 0.053 ± 0.011 | 0.253 ± 0.0814 µM | 

Reference: publication PMC5787524, “Discovery of a FLT3 inhibitor LDD1937 as an anti-leukemic agent for acute myeloid leukemia” (Oncotarget, 2017)
